Values of other authors in PubChem BioAssay AID1259409 (Chemical Carcinogenesis Research Information System (CCRIS), 2018).

Tested on: rodent chemically induced tumor inhibition, incidence and multiplicity
Test: CCRIS tumor inhibitor studies
Settings: Dose [Inhibitor]: 0, Route [Inhibitor]: ORAL, Species: RAT, Promoter: NONE USED

For `CCOC1=C(O)C(=O)O[C@@H]1[C@@H](O)CO`, the “tumour outcome (control, treated, inhibition, significance)” value (Carcinogen: 2-AMINO-1-METHYL-6-PHENYLIMIDAZO[4,5-B]PYRIDINE, 105650-23-5, 1% IN DIET FOR 52 WK CONCURRENTLY WITH CARCINOGEN TREATMENT (STUDY DURATION: 52 WK), Strain/Sex: F344/FEMALE, Target Tissue: Type of Lesion: LARGE INTESTINE: ADENOMA OR CARCINOMA, Dose [Carcinogen]: 0.02% IN DIET FOR 52 WK) is listed as 2/18 (11%), 3/18 (17%), -55%, not significant, the “tumour outcome (control, treated, inhibition, significance)” value (Carcinogen: 2-AMINO-1-METHYL-6-PHENYLIMIDAZO[4,5-B]PYRIDINE, 105650-23-5, 1% IN DIET FOR 52 WK CONCURRENTLY WITH CARCINOGEN TREATMENT (STUDY DURATION: 52 WK), Strain/Sex: F344/FEMALE, Target Tissue: Type of Lesion: MAMMARY GLAND: ADENOCARCINOMA, Dose [Carcinogen]: 0.02% IN DIET FOR 52 WK) is listed as 8/20 (40%), 6/21 (29%), 28%, not significant and the “tumour outcome (control, treated, inhibition, significance)” value (Carcinogen: DIETHYLNITROSAMINE, 55-18-5, N-METHYL-N-NITROSAUREA, 684-93-5, N-BUTYL-N-(4-HYDROXYBUTYL)NITROSAMINE, 3817-11-6, DIMETHY, Carcinogen: DIETHYLNITROSAMINE, 55-18-5, N-METHYL-N-NITROSAUREA, 684-93-5, N-BUTYL-N-(4-HYDROXYBUTYL)NITROSAMINE, 3817-11-6, DIMETHY, 1% IN THE DIET FOR 24 WK BEGINNING 1 DAY POST CARCINOGEN TREATMENT (STUDY DURATION: 28 WK), Strain/Sex: F344/MALE, Target Tissue: Type of Lesion: SMALL INTESTINE: ADENOMA, Dose [Carcinogen]: 100 MG/KG BW DEN ONCE FOLLOWED BY 20 MG/KG BW MNU 4 TIMES AND 0.05% BBN IN DRINKING WATER DURING FIRST 2 WK THEN 40 MG/K) is listed as 33%, 13%, 60%, not significant. For the same compound, the “tumour outcome (control, treated, inhibition, significance)” value (Carcinogen: DIETHYLNITROSAMINE, 55-18-5, N-METHYL-N-NITROSOUREA, 684-93-4, N-BUTYL-N-(4-HYDROXYBUTYL)NITROSAMINE, 3817-11-6, DIMETHY, Carcinogen: DIETHYLNITROSAMINE, 55-18-5, N-METHYL-N-NITROSOUREA, 684-93-4, N-BUTYL-N-(4-HYDROXYBUTYL)NITROSAMINE, 3817-11-6, DIMETHY, 1% IN THE DIET FOR 24 WK BEGINNING 1 DAY POST CARCINOGEN TREATMENT (STUDY DURATION: 28 WK), Strain/Sex: F344/MALE, Target Tissue: Type of Lesion: URINARY BLADDER: CARCINOMA, Dose [Carcinogen]: 100 MG/KG BW DEN ONCE FOLLOWED BY 20 MG/KG BW MNU 4 TIMES AND 0.05% BBN IN DRINKING WATER DURING FIRST 2 WK THEN 40 MG/K) was 7%, 0%, 100%, not significant, the “tumour outcome (control, treated, inhibition, significance)” value (Carcinogen: DIETHYLNITROSAMINE, 55-18-5, N-METHYL-N-NITROSOUREA, 684-93-5, N-BUTYL-N-(4-HYDROXYBUTYL)NITROSAMINE, 3817-11-6, DIMETHY, Carcinogen: DIETHYLNITROSAMINE, 55-18-5, N-METHYL-N-NITROSOUREA, 684-93-5, N-BUTYL-N-(4-HYDROXYBUTYL)NITROSAMINE, 3817-11-6, DIMETHY, 1% IN DIET FOR 24 WK BEGINNING 1 DAY POST CARCINOGEN TREATMENT (STUDY DURATION: 28 WK), Strain/Sex: F344/MALE, Target Tissue: Type of Lesion: THYROID: CARCINOMA, Dose [Carcinogen]: 100 MG/KG BW DEN ONCE FOLLOWED BY 20 MG/KG BW MNU 4 TIMES AND 0.05% BBN IN DRINKING WATER DURING FIRST 2 WK THEN 40 MG/K) was 7%, 0%, 100%, not significant and the “tumour outcome (control, treated, inhibition, significance)” value (Carcinogen: DIETHYLNITROSAMINE, 55-18-5, N-METHYL-N-NITROSOUREA, 684-93-5, N-BUTYL-N-(4-HYDROXYBUTYL)NITROSAMINE, 3817-11-6, DIMETHY, Carcinogen: DIETHYLNITROSAMINE, 55-18-5, N-METHYL-N-NITROSOUREA, 684-93-5, N-BUTYL-N-(4-HYDROXYBUTYL)NITROSAMINE, 3817-11-6, DIMETHY, 1% IN DIET FOR 30 DAYS BEGINNING 1 DAY PRIOR TO CARCINOGEN TREATMENT (STUDY DURATION: 28 WK), Strain/Sex: F344/MALE, Target Tissue: Type of Lesion: URINARY BLADDER: PAPILLOMA, Dose [Carcinogen]: 100 MG/KG BW DEN ONCE FOLLOWED BY 20 MG/KG BW MNU 4 TIMES AND 0.05% BBN IN DRINKING WATER DURING FIRST 2 WK THEN 40 MG/K) was 7%, 7%, 0%, not significant. For the same compound, the “tumour outcome (control, treated, inhibition, significance)” value (Carcinogen: DIETHYLNITROSAMINE, 55-18-5, N-METHYL-N-NITROSOUREA, 684-93-5, N-BUTYL-N-(4-HYDROXYBUTYL)NITROSAMINE, 3817-11-6, DIMETHY, Carcinogen: DIETHYLNITROSAMINE, 55-18-5, N-METHYL-N-NITROSOUREA, 684-93-5, N-BUTYL-N-(4-HYDROXYBUTYL)NITROSAMINE, 3817-11-6, DIMETHY, 1% IN THE DIET FOR 24 WK BEGINNING 1 DAY POST CARCINOGEN TREATMENT ( STUDY DURATION: 28 WK), Strain/Sex: F344/MALE, Target Tissue: Type of Lesion: LARGE INTESTINE: CARCINOMA, Dose [Carcinogen]: 100 MG/KG BW DEN ONCE FOLLOWED BY 20 MG/KG BW MNU 4 TIMES AND 0.05% BBN IN DRINKING WATER DURING FIRST 2 WK THEN 40 MG/K) was 7%, 13%, -86%, not significant and the “tumour outcome (control, treated, inhibition, significance)” value (Carcinogen: DIETHYLNITROSAMINE, 55-18-5, N-METHYL-N-NITROSOUREA, 684-93-5, N-BUTYL-N-(4-HYDROXYBUTYL)NITROSAMINE, 3817-11-6, DIMETHY, Carcinogen: DIETHYLNITROSAMINE, 55-18-5, N-METHYL-N-NITROSOUREA, 684-93-5, N-BUTYL-N-(4-HYDROXYBUTYL)NITROSAMINE, 3817-11-6, DIMETHY, 1% IN THE DIET FOR 24 WK BEGINNING 1 DAY POST CARCINOGEN TREATMENT (STUDY DURATION: 28 WK), Strain/Sex: F344/MALE, Target Tissue: Type of Lesion: LARGE INTESTINE: ADENOMA, Dose [Carcinogen]: 100 MG/KG BW DEN ONCE FOLLOWED BY 20 MG/KG BW MNU 4 TIMES AND 0.05% BBN IN DRINKING WATER DURING FIRST 2 WK THEN 40 MG/K) was 27%, 47%, -74%, not significant.
